In patent US7452887B2, “Quinoline- and isoquinoline-based compounds exhibiting ATP-utilizing enzyme inhibitory activity, and compositions, and uses thereof” (Amphora Discovery Corporation, priority 2004, dated 2008):

Tests used:
Assay in all cases: HTS ATP-utilizing enzyme assay, off-chip mobility-shift (Caliper HTS 250)
Assay type in all cases: biochemical
Settings in all cases: test compound 10 μM, kinase listed = active (greater than six-sigma from the mean activity of inactive compounds)
MAPKAPK2 = MAPKAPK2 (Homo sapiens, UniProt P49137)
How it was run: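 Single-point screen of test compound at 10 μM against MAPKAPK2 with peptide substrate in HEPES pH 7.5 buffer (Triton X-100, BSA), 2.5 h at 20-22 °C. Substrate-to-phosphopeptide ratio was read by off-chip microfluidic mobility shift; EDTA and DMSO wells defined 100% and 0% controls, hits by six-sigma limits.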

DYRK2 = target: T1, DYRK2 (Homo sapiens, UniProt Q92630)
T1 sequence (Q92630 1-601): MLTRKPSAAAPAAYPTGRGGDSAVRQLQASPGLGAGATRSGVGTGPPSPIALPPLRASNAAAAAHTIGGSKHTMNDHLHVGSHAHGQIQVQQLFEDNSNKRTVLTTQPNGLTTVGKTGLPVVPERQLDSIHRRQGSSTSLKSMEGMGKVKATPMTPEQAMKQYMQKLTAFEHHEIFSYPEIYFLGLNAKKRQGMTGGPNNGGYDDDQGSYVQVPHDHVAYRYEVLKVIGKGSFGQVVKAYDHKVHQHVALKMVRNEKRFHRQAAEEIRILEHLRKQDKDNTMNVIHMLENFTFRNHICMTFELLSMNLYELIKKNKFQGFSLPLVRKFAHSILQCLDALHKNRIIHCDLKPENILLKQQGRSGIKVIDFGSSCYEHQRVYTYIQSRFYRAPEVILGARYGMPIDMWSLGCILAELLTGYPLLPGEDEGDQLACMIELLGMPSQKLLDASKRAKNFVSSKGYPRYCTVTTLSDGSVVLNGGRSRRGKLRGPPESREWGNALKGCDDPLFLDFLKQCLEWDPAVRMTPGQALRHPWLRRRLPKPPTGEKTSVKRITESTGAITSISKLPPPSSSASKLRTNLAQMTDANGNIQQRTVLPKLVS
Excerpt: (§1) The following procedures describe the reagent and plate preparation for a HTS of an ATP-utilizing enzyme, such as a protein kinase, run in an off-chip mobility-shift assay format. The following provides an HTS protocol for running a protein kinase HTS screen on a Caliper HTS 250 microfluidics system. The following parameters are dependent on the protein kinase used and can be determined by one skilled in the art as part of a typical assay development process. For example, the peptide substrate used can be identified from the current literature, by screening a peptide library of potential protein kinase substrates, or by other applicable means accepted in the field.
(§2) The following table provides typical screen assay parameters appropriate for a Caliper HTS 250 microfluidics system.
(§3) The reagents and buffers listed in the following table are generally applicable for developing and running an HTS screen on a human protein kinase using the Caliper HTS 250 system.
(§4) The following reagents were prepared using the previously described buffers.
(§5) A 2× Master Buffer solution was prepared by combining 200 mL of 1 M HEPES, pH 7.5, 2 mL of 10% Triton X-100, 20 mL of 10% BSA, and 778 mL of H2O.
(§6) A 2.5× Substrate Buffer solution was prepared by combining 177.408 mL of 2× Master Buffer, 0.887 mL of 1 mM peptide-X, and 176.521 mL of H2O.
(§7) A 1.55× Termination Buffer solution was prepared by combining 762.05 mL of 2× Master Buffer, 95.1 mL of 0.5 M EDTA, and 666.94 mL of H2O.
(§8) A TCB Buffer solution was prepared by combining 125 mL of 2× Master Buffer, 10 mL of 0.5 M EDTA, 6.25 mL of 4% coating reagent, 1.01 mL of 100% DMSO, and 107.74 mL H2O.
(§9) A Dye Trough solution was prepared by combining 0.5 μL of peptide-X, and 2,999.5 μL of IX Master Buffer.
(§10) A 1.06× Assay Buffer solution was prepared by combining 205.15 mL of 2× Master Buffer, and 181.92 mL of H2O.
(§11) Assays to determine the kinase inhibitory activity of compounds of the present disclosure were performed using a Caliper HTS 250 microfluidics device, Greiner U-bottom assay plates, a Multidrop for transfer of reagents, and Biomek FX (AMNCBM03) software. Initially, 2.4 μL of a 1 mM solution of a test compound in 100% DMSO was added to a well of the Greiner U-bottom plate. A single Greiner U-bottom plate having 24×16 wells could include multiple test compounds. Next, […] of 1.06× Assay Buffer was added to each well of the assay plate. Using the Biomek FX, 10 μL of 0.5 M EDTA was added by the span-8 to wells, indicated as 100% Control and 2.4 μL of 100% DMSO was added by the span-8 to wells, indicated as 0% Control. Using the Multidrop, 10 μL of 2.5× Enzyme Buffer, followed by 10 μL of 2.5× Substrate Buffer was added to each well of the assay plate. The total reaction volume in each well was 25 μL, and the concentration of the test compound was 10 μM. The assay plate was incubated for 2.5 hrs at 20° C. to 22° C. After the incubation period, using the Multidrop, 45 μL of 1.55× Termination Buffer was added to each well of the assay plate to stop the reaction. The inhibition of the ATP-utilizing enzyme, such as a particular protein kinase, was determined by measuring the ratio of the peptide substrate to phosphorylated product for each well of the assay plate using the Caliper HTS 250 system.
(§12) The use of six-sigma statistical limits represents a conservative method for declaring potential hits among targets. The six-sigma activity, as well as the mean population activity, can be different for each target enzyme. This method has an expected false positive rate, from an in-control measurement process, of one in one million.

KIT = KIT (Homo sapiens, UniProt P10721)
Excerpt: as §1, §2, §3, §4, §5, §6, §7, §8, §9, §10, §11, §12

NEK2 = target: T2, NEK2 (Homo sapiens, UniProt P51955)
T2 sequence (P51955 1-445): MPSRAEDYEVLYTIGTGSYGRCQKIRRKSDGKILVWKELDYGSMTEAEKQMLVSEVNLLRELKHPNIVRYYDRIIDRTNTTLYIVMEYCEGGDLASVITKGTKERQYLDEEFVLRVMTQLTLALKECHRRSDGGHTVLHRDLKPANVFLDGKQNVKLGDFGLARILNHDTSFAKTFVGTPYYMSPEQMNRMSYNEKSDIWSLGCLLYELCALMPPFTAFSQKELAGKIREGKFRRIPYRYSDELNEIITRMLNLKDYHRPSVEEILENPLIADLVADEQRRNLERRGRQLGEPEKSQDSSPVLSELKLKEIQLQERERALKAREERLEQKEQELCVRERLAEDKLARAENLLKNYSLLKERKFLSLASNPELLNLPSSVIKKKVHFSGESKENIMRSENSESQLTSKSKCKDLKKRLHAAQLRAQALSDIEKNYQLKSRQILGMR
Excerpt: as §1, §2, §3, §4, §5, §6, §7, §8, §9, §10, §11, §12

PRAK = target: T3, PRAK (Homo sapiens, UniProt Q8IW41)
T3 sequence (Q8IW41 1-473): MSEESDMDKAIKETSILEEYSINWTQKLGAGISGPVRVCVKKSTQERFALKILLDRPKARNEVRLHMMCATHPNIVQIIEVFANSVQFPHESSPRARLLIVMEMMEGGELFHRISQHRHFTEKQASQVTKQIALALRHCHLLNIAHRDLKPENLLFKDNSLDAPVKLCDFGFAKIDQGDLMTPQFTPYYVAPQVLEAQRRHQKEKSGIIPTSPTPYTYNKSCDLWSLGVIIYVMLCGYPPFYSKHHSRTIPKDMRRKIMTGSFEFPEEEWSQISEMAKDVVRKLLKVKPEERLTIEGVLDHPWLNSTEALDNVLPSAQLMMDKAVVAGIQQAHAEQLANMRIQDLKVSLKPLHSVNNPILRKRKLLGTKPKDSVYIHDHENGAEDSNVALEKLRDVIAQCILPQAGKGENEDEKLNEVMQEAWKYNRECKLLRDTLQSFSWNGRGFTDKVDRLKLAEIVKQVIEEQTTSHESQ
Excerpt: as §1, §2, §3, §4, §5, §6, §7, §8, §9, §10, §11, §12

CHEK2 = CHEK2 (Homo sapiens, UniProt O96017)
Excerpt: as §1, §2, §3, §4, §5, §6, §7, §8, §9, §10, §11, §12

C-TAK1 = C-TAK1 (Homo sapiens, UniProt P27448)
Excerpt: as §1, §2, §3, §4, §5, §6, §7, §8, §9, §10, §11, §12

Chain of C-TAK1 (P27448 whole entry): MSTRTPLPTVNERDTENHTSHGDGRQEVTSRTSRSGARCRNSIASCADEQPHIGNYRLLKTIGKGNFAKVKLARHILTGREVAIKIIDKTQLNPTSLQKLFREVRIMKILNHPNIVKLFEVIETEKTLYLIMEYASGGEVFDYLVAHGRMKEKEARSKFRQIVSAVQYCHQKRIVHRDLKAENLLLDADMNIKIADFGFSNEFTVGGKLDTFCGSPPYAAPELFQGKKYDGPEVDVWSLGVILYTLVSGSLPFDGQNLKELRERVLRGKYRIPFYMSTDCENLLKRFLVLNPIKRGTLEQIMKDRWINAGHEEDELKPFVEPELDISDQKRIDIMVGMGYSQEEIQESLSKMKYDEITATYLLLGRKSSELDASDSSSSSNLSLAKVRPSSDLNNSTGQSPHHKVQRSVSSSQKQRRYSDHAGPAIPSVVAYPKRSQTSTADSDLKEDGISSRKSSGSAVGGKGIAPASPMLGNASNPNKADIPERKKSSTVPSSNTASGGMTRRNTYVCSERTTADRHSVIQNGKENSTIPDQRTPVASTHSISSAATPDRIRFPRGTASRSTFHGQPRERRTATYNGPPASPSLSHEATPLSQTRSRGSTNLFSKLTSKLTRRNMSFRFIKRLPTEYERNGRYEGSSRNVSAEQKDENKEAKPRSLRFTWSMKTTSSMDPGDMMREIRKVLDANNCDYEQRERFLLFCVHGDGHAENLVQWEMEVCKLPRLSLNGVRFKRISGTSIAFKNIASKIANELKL
Chain of MAPKAPK2 (P49137 whole entry): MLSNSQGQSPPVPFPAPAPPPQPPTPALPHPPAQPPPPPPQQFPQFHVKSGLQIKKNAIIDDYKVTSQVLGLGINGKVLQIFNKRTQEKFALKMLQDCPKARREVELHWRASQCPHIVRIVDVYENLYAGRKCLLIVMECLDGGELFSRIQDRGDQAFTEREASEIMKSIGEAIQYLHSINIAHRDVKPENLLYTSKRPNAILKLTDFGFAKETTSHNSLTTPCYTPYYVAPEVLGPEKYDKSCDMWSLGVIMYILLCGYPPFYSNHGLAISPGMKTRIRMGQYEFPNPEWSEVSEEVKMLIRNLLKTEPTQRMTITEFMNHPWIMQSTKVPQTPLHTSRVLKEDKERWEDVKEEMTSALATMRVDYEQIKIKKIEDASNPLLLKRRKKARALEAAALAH
Chain of KIT (P10721 26-976): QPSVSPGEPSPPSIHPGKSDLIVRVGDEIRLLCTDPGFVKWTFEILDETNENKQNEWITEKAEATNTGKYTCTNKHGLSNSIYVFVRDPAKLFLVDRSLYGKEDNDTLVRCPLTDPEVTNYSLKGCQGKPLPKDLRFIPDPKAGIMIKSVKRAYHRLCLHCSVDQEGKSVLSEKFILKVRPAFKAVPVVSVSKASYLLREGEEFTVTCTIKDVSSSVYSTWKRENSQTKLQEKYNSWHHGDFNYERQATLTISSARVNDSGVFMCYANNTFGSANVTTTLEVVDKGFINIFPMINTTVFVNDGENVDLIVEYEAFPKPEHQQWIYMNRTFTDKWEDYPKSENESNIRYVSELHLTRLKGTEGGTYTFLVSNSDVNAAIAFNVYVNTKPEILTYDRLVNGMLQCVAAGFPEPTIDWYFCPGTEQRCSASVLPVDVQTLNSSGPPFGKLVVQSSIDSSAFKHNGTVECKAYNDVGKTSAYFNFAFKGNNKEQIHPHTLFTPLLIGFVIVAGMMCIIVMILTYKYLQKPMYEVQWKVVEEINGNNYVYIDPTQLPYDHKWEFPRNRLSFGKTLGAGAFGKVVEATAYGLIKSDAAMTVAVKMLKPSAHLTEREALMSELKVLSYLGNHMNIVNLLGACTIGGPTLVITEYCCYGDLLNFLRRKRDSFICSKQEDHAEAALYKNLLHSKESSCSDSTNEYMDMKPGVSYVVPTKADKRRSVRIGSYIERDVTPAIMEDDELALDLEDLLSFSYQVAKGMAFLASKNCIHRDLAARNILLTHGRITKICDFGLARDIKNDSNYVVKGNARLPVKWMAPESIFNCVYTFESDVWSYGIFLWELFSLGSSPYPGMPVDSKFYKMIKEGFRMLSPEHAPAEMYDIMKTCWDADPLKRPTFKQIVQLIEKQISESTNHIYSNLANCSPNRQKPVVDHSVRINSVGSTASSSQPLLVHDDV
Chain of CHEK2 (O96017 whole entry): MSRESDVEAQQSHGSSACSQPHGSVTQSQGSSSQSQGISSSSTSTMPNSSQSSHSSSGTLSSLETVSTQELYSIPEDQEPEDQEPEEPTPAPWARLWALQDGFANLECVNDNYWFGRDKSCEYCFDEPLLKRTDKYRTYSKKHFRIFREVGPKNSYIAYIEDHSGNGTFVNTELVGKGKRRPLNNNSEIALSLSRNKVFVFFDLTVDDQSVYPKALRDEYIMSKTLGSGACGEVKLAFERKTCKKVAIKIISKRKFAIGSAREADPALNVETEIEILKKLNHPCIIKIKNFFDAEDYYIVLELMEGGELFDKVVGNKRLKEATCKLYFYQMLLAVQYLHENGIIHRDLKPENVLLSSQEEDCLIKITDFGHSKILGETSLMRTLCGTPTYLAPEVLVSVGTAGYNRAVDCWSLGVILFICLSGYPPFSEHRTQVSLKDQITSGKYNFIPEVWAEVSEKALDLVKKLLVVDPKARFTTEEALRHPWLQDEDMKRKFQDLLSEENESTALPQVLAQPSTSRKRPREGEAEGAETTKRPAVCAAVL

| Activity (MAPKAPK2) | Activity (DYRK2) | Activity (KIT) | Activity (NEK2) | Activity (PRAK) | Activity (CHEK2) | Activity (C-TAK1) | SMILES |
| --- | --- | --- | --- | --- | --- | --- | --- |
| MAPKAPK2 | DYRK2 |  |  |  |  |  | COc1ccc(-c2ccc3nccc(Nc4ccc(N5CCN(CCCO)CC5)cc4)c3c2)cc1 [3-(4-(4-(6-(4-methoxyphenyl)quinolin-4-ylamino)phenyl)piperazin-1-yl)propan-1-ol] |
|  |  | KIT |  |  |  |  | CN(C)C1CCN(c2ccc(Nc3ccnc4ccc(-c5ccc(C#N)cc5)cc34)cc2)CC1 [4-(4-(4-(4-(dimethylamino)piperidin-1-yl)phenylamino)quinolin-6-yl)benzonitrile] |
|  |  | KIT |  |  |  |  | N#Cc1ccc(-c2ccc3nccc(Nc4ccc(C5CCNCC5)cc4)c3c2)cc1 [4-(4-(4-(piperidin-4-yl)phenylamino)quinolin-6-yl)benzonitrile] |
| MAPKAPK2 | DYRK2 |  | NEK2 | PRAK |  |  | COc1ccc(-c2ccc3nccc(Nc4ccc(N5CCN(C)CC5)cc4)c3c2)cc1OC [6-(3,4-dimethoxyphenyl)-N-(4-(4-methylpiperazin-1-yl)phenyl)quinolin-4-amine] |
| MAPKAPK2 |  |  | NEK2 | PARK | CHEK2 |  | CCOc1cccc(-c2ccc3nccc(Nc4ccc(N5CCN(C)CC5)cc4)c3c2)c1 [6-(3-ethoxyphenyl)-N-(4-(4-methylpiperazin-1-yl)phenyl)quinolin-4-amine] |
|  | DYRK2 |  | NEK2 | PRAK |  |  | COc1cccc(-c2ccc3nccc(Nc4ccc(N5CCN(C)CC5)cc4)c3c2)c1 [6-(3-methoxyphenyl)-N-(4-(4-methylpiperazin-1-yl)phenyl)quinolin-4-amine] |
| MAPKAPK2 |  |  | NEK2 | PRAK |  | C-TAK1 | CCSc1ccc(-c2ccc3nccc(Nc4ccc(N5CCN(C)CC5)cc4)c3c2)cc1 [6-(4-(ethylthio)phenyl)-N-(4-(4-methylpiperazin-1-yl)phenyl)quinolin-4-amine] |
| MAPKAPK2 |  |  | NEK2 | PRAK |  | C-TAK1 | Cc1cc(-c2ccc3nccc(Nc4ccc(N5CCN(C)CC5)cc4)c3c2)ccc1F [6-(4-fluoro-3-methylphenyl)-N-(4-(4-methylpiperazin-1-yl)phenyl)quinolin-4-amine] |
| MAPKAPK2 | DYRK2 |  | NEK2 | PRAK |  |  | COc1ccc(-c2ccc3nccc(Nc4ccc(N5CCN(C)CC5)cc4)c3c2)cc1 [6-(4-methoxyphenyl)-N-(4-(4-methylpiperazin-1-yl)phenyl)quinolin-4-amine] |
| MAPKAPK2 |  |  |  | PRAK |  | C-TAK1 | CN1CCN(c2ccc(Nc3ccnc4ccc(-c5cccc(-c6ccccc6)c5)cc34)cc2)CC1 [6-(biphenyl-3-yl)-N-(4-(4-methylpiperazin-1-yl)phenyl)quinolin-4-amine] |
| MAPKAPK2 |  |  |  | PRAK | CHEK2 |  | CN1CCN(c2ccc(Nc3ccnc4ccc(-c5ccco5)cc34)cc2)CC1 [6-(furan-2-yl)-N-(4-(4-methylpiperazin-1-yl)phenyl)quinolin-4-amine] |
| MAPKAPK2 | DYRK2 |  |  |  |  | C-TAK1 | COc1ccc(-c2ccc3nccc(Nc4ccc(N5CCN(CCN(C)C)CC5)cc4)c3c2)cc1 [N-(4-(4-(2-(dimethylamino)ethyl)piperazin-1-yl)phenyl)-6-(4-methoxyphenyl)quinolin-4-amine] |
| MAPKAPK2 |  | KIT |  |  |  |  | CC(C)N1CCN(c2ccc(Nc3ccnc4ccc(-c5ccccc5)cc34)cc2)CC1 [N-(4-(4-isopropylpiperazin-1-yl)phenyl)-6-phenylquinolin-4-amine] |
| MAPKAPK2 |  |  | NEK2 | PRAK | CHEK2 |  | Cc1csc(-c2ccc3nccc(Nc4ccc(N5CCN(C)CC5)cc4)c3c2)c1 [N-(4-(4-methylpiperazin-1-yl)phenyl)-6-(4-methylthiophen-2-yl)quinolin-4-amine] |
| MAPKAPK2 |  |  |  | PRAK |  | C-TAK1 | CN1CCN(c2ccc(Nc3ccnc4ccc(-c5ccc(Oc6ccccc6)cc5)cc34)cc2)CC1 [N-(4-(4-methylpiperazin-1-yl)phenyl)-6-(4-phenoxyphenyl)quinolin-4-amine] |
| MAPKAPK2 |  |  | NEK2 | PRAK | CHEK2 |  | C=Cc1ccc(-c2ccc3nccc(Nc4ccc(N5CCN(C)CC5)cc4)c3c2)cc1 [N-(4-(4-methylpiperazin-1-yl)phenyl)-6-(4-vinylphenyl)quinolin-4-amine] |
